Experimental data taken from patent US9079895B2, “Morpholino compounds, uses and methods” (University of Dundee, priority 2012, dated 2015).

Key:
Details in all cases: average of at least two experiments
[1] = target: Alpha1A adrenergic receptor (Homo sapiens (Human), UniProt P35348); assay: Secondary radioligand binding assay, Alpha1A; set-up: key to Ki Alpha1A: “—” indicates that a binding interaction was not detected
Text: 1. Secondary Radioligand Binding Assays The detailed experimental protocols for the radioligand and functional receptor assays are available on the NIMH PDSP website at http://pdsp.med.unc.edu/UNC-CH %20Protocol %20Book.pdf. Raw data (dpm) representing total radioligand binding (i.e. specific+non-specific binding) are plotted as a function of the logarithm of the molar concentration of the competitor (i.e. test or reference compound). […] C. Adrenergic Receptors: α1A, α1B, α2A, α2B, α2C, β1, β2, β3 Assay Buffers: For α1 receptors, α1 Binding Buffer (20 mM Tris-HCl, 145 mM NaCl, pH 7.4); for α2 receptors, α2 Binding Buffer (50 mM Tris-HCl, 5 mM MgCl2, pH 7.7); for β receptors, β Binding Buffer (50 mM Tris-HCl, 3 mM MnCl2, pH 7.7) Membrane Fraction Source: Transiently or stably transfected cell lines (e.g. HEK293, COS, CHO, NIH3T3) Protocol adapted from Arango et al. […] (1990), Gen. Psychiatry, 47: 1038-1047. The method is carried out in the manner described for the serotonin receptor assay above, except where described below. Eleven dilutions (5× assay concentration) of the test and reference (see Table 20) compounds are prepared in the appropriate buffer by serial dilution, as previously described. Radioligand is diluted to five times the assay concentration (see Table 21) in the appropriate buffer. […] Four rapid 500-μl washes are performed with chilled distilled water (for α1 and β receptors) or 0.1% polyethyleneimine (for α2 receptors) to reduce non-specific binding. Filters are placed in 6 ml scintillation tubes and allowed to dry overnight and the samples are treated to obtain data as described above. [table]

5HT2b receptor = 5HT2b receptor (Homo sapiens (Human), UniProt P41595); assay: Secondary radioligand binding assay, 5HT2b; set-up: key to Ki 5HT2b: “—” indicates that a binding interaction was not detected;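 also: competition binding against a radioligand on membranes from transfected cell lines, 1.5 h incubation at room temperature, filter-retained radioactivity counted by liquid scintillation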
5HT4 receptor = 5HT4 receptor (Homo sapiens (Human), UniProt Q13639); assay: Secondary radioligand binding assay, 5HT4; set-up: key: “—” indicates that a binding interaction was not detected
Procedure: 1. Secondary Radioligand Binding Assays The detailed experimental protocols for the radioligand and functional receptor assays are available on the NIMH PDSP website at http://pdsp.med.unc.edu/UNC-CH %20Protocol %20Book.pdf. Assay Buffer: Standard Binding Buffer (50 mM Tris-HCl, 10 mM MgCl2, 1 mM EDTA, pH 7.4) Membrane Fraction Source: Transiently or stably transfected cell lines (e.g., HEK293, COS, CHO, NIH3T3) Protocol adapted from Roth et al. (1986), J. Pharmacol. Exp. Ther., 238(2): 480-485; and Roth et al. (1994), J. Pharmacol. Exp. Ther., 268(3): 1403-1410. […] A similar stock of a reference compound (positive control) is also prepared. […] Radioligand is diluted to five times the assay concentration (see Table 18) in Standard Binding Buffer. Typically, the assay concentration of radioligand is a value between one half the KD and the KD of a particular radioligand at its target. 50 μl aliquots of radioligand are dispensed into the wells of a 96-well plate containing 100 μl of Standard Binding Buffer. Then, duplicate 50 μl aliquots of the test and reference compound dilutions are added. Finally, crude membrane fractions of cells expressing recombinant target (prepared from 10 cm plates by harvesting PBS-rinsed monolayers, resuspending and lysing in chilled, hypotonic 50 mM Tris-HCl, pH 7.4, centrifuging at 20,000×g, decanting the supernatant and storing at −80° C.; typically, one 10 cm plate provides sufficient material for 24 wells), are resuspended in 3 ml of chilled Standard Binding Buffer and homogenized by several passages through a 26 gauge needle, then 50 μl are dispensed into each well. […] Four rapid 500 μl washes are performed with chilled Standard Binding Buffer to reduce non-specific binding. Filters are placed in 6 ml scintillation tubes and allowed to dry overnight. The next day, 4 ml of EcoScint scintillation cocktail (National Diagnostics) are added to each tube. The tubes are capped, labeled, and counted by liquid scintillation counting. For higher throughput assays, bound radioactivity is harvested onto 0.3% polyethyleneimine-treated, 96-well filter mats using a 96-well Filtermate harvester. The filter mats are dried, then scintillant is melted onto the filters and the radioactivity retained on the filters is counted in a Microbeta scintillation counter. Raw data (dpm) representing total radioligand binding (i.e. specific+non-specific binding) are plotted as a function of the logarithm of the molar concentration of the competitor (i.e. test or reference compound).

5HT1e receptor = 5HT1e receptor (Homo sapiens (Human), UniProt P28566); assay: Secondary radioligand binding assay, 5HT1e; set-up: key: “—” indicates that a binding interaction was not detected;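 also: competition binding against a radioligand on membranes from transfected cell lines, 1.5 h at room temperature, bound radioactivity counted by liquid scintillation after filtration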
5HT2a receptor = 5HT2a receptor (Homo sapiens (Human), UniProt P28223); assay: Secondary radioligand binding assay, 5HT2a
Chain of 5HT2a receptor (P28223 whole entry): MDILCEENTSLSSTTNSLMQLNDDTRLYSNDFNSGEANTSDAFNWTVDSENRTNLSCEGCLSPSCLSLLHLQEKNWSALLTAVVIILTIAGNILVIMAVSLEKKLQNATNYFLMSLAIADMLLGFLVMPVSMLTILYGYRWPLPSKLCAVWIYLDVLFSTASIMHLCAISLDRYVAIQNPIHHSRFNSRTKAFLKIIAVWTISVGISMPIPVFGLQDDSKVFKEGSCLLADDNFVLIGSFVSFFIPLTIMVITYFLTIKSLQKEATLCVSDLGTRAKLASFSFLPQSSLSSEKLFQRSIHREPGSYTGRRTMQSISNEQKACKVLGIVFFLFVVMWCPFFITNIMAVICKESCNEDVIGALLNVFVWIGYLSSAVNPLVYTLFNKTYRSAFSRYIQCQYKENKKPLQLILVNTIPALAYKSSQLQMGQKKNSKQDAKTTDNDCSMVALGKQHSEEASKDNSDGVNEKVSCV

Chain of Alpha1A adrenergic receptor (P35348 whole entry): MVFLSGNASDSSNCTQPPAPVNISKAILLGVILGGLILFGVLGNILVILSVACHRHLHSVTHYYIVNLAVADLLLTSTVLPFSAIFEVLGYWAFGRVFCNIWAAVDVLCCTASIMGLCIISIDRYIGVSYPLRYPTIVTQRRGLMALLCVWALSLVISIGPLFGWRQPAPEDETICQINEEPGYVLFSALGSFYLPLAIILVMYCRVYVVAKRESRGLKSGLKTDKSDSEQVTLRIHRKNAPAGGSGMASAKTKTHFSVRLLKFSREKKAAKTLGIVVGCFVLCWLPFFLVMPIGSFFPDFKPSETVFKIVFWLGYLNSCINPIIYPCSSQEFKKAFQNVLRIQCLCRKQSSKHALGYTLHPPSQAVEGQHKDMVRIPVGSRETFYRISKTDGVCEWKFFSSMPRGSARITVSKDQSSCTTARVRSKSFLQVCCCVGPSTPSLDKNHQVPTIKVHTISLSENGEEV
Chain of 5HT4 receptor (Q13639 whole entry): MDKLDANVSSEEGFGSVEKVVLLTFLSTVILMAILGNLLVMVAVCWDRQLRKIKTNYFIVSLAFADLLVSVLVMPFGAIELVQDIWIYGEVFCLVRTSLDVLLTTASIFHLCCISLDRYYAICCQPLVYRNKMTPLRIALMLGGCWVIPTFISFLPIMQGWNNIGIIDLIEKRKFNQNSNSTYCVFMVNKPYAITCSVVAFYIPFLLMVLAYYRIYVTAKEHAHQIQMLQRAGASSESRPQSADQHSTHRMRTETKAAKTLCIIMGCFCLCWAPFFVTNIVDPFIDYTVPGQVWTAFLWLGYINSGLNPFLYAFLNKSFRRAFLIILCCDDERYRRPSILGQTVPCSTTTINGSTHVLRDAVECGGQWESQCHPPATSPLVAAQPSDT
Chain of 5HT2b receptor (P41595 whole entry): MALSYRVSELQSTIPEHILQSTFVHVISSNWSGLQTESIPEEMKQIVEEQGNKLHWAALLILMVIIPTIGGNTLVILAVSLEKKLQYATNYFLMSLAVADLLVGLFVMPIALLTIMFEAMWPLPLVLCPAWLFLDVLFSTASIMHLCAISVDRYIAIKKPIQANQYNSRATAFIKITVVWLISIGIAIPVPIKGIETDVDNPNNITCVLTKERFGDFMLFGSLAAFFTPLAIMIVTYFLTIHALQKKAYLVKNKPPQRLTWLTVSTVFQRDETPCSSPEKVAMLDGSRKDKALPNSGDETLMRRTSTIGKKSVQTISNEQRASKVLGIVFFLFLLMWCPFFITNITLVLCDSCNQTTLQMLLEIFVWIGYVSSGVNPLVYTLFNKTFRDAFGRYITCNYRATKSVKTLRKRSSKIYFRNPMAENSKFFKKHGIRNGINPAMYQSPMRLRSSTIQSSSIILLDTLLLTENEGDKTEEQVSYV
Chain of 5HT1e receptor (P28566 whole entry): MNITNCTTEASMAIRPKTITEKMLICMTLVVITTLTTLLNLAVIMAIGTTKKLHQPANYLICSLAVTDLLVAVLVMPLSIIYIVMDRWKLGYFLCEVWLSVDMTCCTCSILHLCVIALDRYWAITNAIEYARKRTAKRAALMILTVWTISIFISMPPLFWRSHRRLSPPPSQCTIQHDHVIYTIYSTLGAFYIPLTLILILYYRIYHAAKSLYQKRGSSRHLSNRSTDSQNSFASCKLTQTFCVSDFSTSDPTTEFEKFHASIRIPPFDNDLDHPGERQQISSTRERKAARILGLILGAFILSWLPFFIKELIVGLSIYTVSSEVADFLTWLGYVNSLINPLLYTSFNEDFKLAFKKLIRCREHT

| Ki Alpha1A [1] | Ki 5HT2b (5HT2b receptor) | Ki 5HT4 (5HT4 receptor) | Ki 5HT1e (5HT1e receptor) | Ki (5HT2b receptor) | SMILES | Ki (5HT2a receptor) | Ki [1] |
| --- | --- | --- | --- | --- | --- | --- | --- |
| — |  | — | — | 600 nM | c1ccc(OC[C@H]2CN(CCN3CCc4ccccc43)CCO2)nc1 [Compound 15r, (R)-4-(2-(Indolin-1-yl)ethyl)-2-((pyridin-2-yloxy)methyl)morpholine] |  |  |
| — | — | — | — |  | Cc1ccnc(OC[C@H]2CN(CC(=O)N3CCc4ccccc43)CCO2)c1 [Compound 16r] |  |  |
| — |  | — | — | 788 nM | Cc1ccnc(OC[C@H]2CN(CCN3CCc4ccccc43)CCO2)c1 [Compound 17r, (R)-4-(2-(Indolin-1-yl)ethyl)-2-(((4-methylpyridin-2-yl)oxy)methyl)morpholine] |  |  |
| — |  | — | — |  | Clc1cccc(OC[C@H]2CN(CCN3CCc4ccccc43)CCO2)c1 [Compound 23r, (R)-2-((3-Chlorophenoxy)methyl)-4-(2-(indolin-1-yl)ethyl)morpholine] | 2670 nM |  |
| — |  | — | — | 3170 nM | Cc1ncccc1OC[C@H]1CN(CCN2CCc3ccccc32)CCO1 [Compound 26r, (R)-4-(2-(Indolin-1-yl)ethyl)-2-(((2-methylpyridin-3-yl)oxy)methyl)morpholine] |  |  |
| — |  | — | — | 2560 nM | Clc1cncc(OC[C@H]2CN(CCN3CCc4ccccc43)CCO2)c1 [Compound 27r, (R)-2-(((5-Chloropyridin-3-yl)oxy)methyl)-4-(2-(indolin-1-yl)ethyl)morpholine] |  |  |
| — |  | — | — | 4610 nM | Cc1ncccc1OC[C@@H]1CN(CC(=O)N2c3ccccc3CC2C)CCO1.Cl (some centres unmarked) [Compound 60] |  |  |
| — | — | — | — |  | Cc1ncccc1OC[C@@H]1CN(CC(=O)N2c3ccccc3C[C@H]2C)CCO1 [Compound 61] |  |  |
| — |  | — | — | 5180 nM | Cc1ncccc1OC[C@H]1CN(CC(=O)N2c3ccccc3CC2C)CCO1 (some centres unmarked) [Compound 62] |  |  |
| — | — | — | — |  | Cc1ncccc1OC[C@H]1CN(CC(=O)N2c3ccccc3C[C@H]2C)CCO1 [Compound 63] |  |  |
| — |  | — | — | 770 nM | Cc1ccccc1OC[C@H]1CN(CC(=O)N2c3ccccc3CC2C)CCO1 (some centres unmarked) [Compound 66] |  |  |
| — | — | — | — |  | C[C@@H]1Cc2ccccc2N1C(=O)CN1CCO[C@@H](COc2ccncc2)C1 [Compound 67] |  |  |
| — | — | — | — |  | CC1Cc2ccccc2N1C(=O)CN1CCO[C@@H](COc2ccncc2)C1 (some centres unmarked) [Compound 68] |  |  |
| — | — | — | — |  | CC1Cc2ccccc2N1C(=O)CN1CCO[C@@H](COc2ccccn2)C1 (some centres unmarked) [Compound 69] |  |  |
| — |  | — | — | 3460 nM | Cc1ccnc(OC[C@H]2CN(CC(=O)N3c4ccccc4CC3C)CCO2)c1 (some centres unmarked) [Compound 70] |  |  |

| SMILES | Ki Alpha1A [1] | Ki 5HT2b (5HT2b receptor) | Ki 5HT4 (5HT4 receptor) | Ki 5HT1e (5HT1e receptor) | Ki (5HT2b receptor) | Ki (5HT2a receptor) | Ki [1] |
| --- | --- | --- | --- | --- | --- | --- | --- |
| O=C(CN1CCO[C@@H](COc2ccccn2)C1)N1CCc2ccccc21 [Compound 14r, (R)-1-(Indolin-1-yl)-2-(2-((pyridin-2-yloxy)methyl)morpholino)ethanone] | — | — | — | — |  |  |  |
| O=C(CN1CCO[C@H](COc2ccccc2)C1)N1CCc2ccccc21 [Compound 18s, (S)-1-(Indolin-1-yl)-2-(2-(phenoxymethyl)morpholino)ethanone] | — |  | — | — | 6420 nM |  |  |
| c1ccc(OC[C@@H]2CN(CCN3CCc4ccccc43)CCO2)cc1 [Compound 19s, (S)-4-(2-(Indolin-1-yl)ethyl)-2-(phenoxymethyl)morpholine] |  |  | — | — | 1440 nM | 817 nM | 2720 nM |
| O=C(CN1CCO[C@@H](COc2cccnc2)C1)N1CCc2ccccc21 [Compound 20r, (R)-1-(Indolin-1-yl)-2-(2-((pyridin-3-yloxy)methyl)morpholino)ethanone] | — |  | — | — | 8810 nM | 2660 nM |  |
| O=C(CN1CCO[C@H](COc2cccnc2)C1)N1CCc2ccccc21 [Compound 20s, (S)-1-(Indolin-1-yl)-2-(2-((pyridin-3-yloxy)methyl)morpholino)ethanone] | — |  | — | — | 7640 nM |  |  |
| c1cncc(OC[C@H]2CN(CCN3CCc4ccccc43)CCO2)c1 [Compound 21r, (R)-4-(2-(Indolin-1-yl)ethyl)-2-((pyridin-3-yloxy)methyl)morpholine] | — | — | — | — |  | 3580 nM |  |
| Clc1cccc(OC[C@@H]2CN(CCN3CCc4ccccc43)CCO2)c1 [Compound 23s, (S)-2-((3-chlorophenoxy)methyl)-4-(2-(indolin-1-yl)ethyl)morpholine] |  |  | — | — |  | 1280 nM | 9040 nM |
| COc1cccc(OC[C@@H]2CN(CCN3CCc4ccccc43)CCO2)c1 [Compound 25s, (S)-4-(2-(Indolin-1-yl)ethyl)-2-((3-methoxyphenoxy)methyl)morpholine] |  |  | — | — |  | 1400 nM | 8350 nM |
| Cc1ncccc1OC[C@@H]1CN(CCN2CCc3ccccc32)CCO1 [Compound 26s, (S)-4-(2-(Indolin-1-yl)ethyl)-2-(((2-methylpyridin-3-yl)oxy)methyl)morpholine] | — | — | — | — |  |  |  |
| Clc1cncc(OC[C@@H]2CN(CCN3CCc4ccccc43)CCO2)c1 [Compound 27s, (S)-2-(((5-Chloropyridin-3-yl)oxy)methyl)-4-(2-(indolin-1-yl)ethyl)morpholine] | — | — | — | — |  |  |  |
| Cc1ccc(OC[C@@H]2CN(CCN3CCc4ccccc43)CCO2)cn1 [Compound 28s, (S)-4-(2-(Indolin-1-yl)ethyl)-2-(((6-methylpyridin-3-yl)oxy)methyl)morpholine] | — | — | — | — |  |  |  |
